The test system of one test is Aβ formation (γ-secretase) in H4 cells stably transfected to overexpress the HPLAP-APP fusion protein. Kind of test: In vitro assay based on the inhibition of Aβ formation in cultured cells. The note with it: H4 cells overexpressing HPLAP-APP, 18 hrs incubation at 37° C., Aβ in supernatant by time-resolved fluorescence; class symbols. The format is cell-based, human. On the procedure:
Cultured human cell lines, such as HEK293 and H4 cells, which express APP and γ-secretase activity or transfected derivative cell lines that overexpress wild-type APP, mutant APP, or APP fusion proteins will secrete Aβ peptides into the culture media that can be quantified as previously outlined (Dovey, H. et al., J. Neurochem., 76:173-181 (2001)). The incubation of these cultured cells with γ-secretase inhibitors decreases the production of Aβ peptides. For instance, H4 cells stably transfected to overexpress the HPLAP-APP fusion protein described above were grown as above, detached, and adjusted to 2×10^5 cells/ml. 100 μl of the resulting suspension was then added to each well of a 96-well plate. After 4 hrs, the media was removed and replaced with 100 μl serum-free media containing various dilutions of the test compound. Plates were then incubated for 18 hrs at 37° C. and a 100 μl aliquot of the tissue culture supernatant was removed for determination of Aβ levels using time-resolved fluorescence of the homogenous sample as outlined above. Alternately, the other methods described above for Aβ determination could be used. The extent of Aβ inhibition was used to calculate the IC50 value for the test compound.
In the table, an inhibitory concentration (IC50) of less than or equal to 50 nM is represented by +++; between 50 nM and 500 nM by ++; between 500 nM and 5000 nM by +.
`O=S(=O)(c1ccc(Cl)cc1)N(Cc1ccc(-c2ncco2)c(F)c1F)[C@@H]1CCCC[C@H]1CO` [Compound 16, 4-Chloro-N-(2,3-difluoro-4-(oxazol-2-yl)benzyl)-N-((1R,2R)-2-(hydroxymethyl)cyclohexyl)benzenesulfonamide] showed an IC50 of at most 50 nM.

In turn, `O=S(=O)(c1ccc(Cl)cc1)N(Cc1ccc(-c2ncon2)cc1)[C@@H]1CCCC[C@H]1CO` (single isomer, unassigned) [Compound 7, N-(4-(1,2,4-oxadiazol-3-yl)benzyl)-4-chloro-N-(trans-2-(hydroxymethyl)cyclohexyl)benzenesulfonamide] had an IC50 of at most 50 nM.

The test is the same for the next values; noted with them: Homo sapiens, 18 h, H4 cells overexpressing HPLAP-APP, 18 hrs incubation at 37° C., Aβ in supernatant by time-resolved fluorescence; class symbols.
Turning to `O=S(=O)(c1ccc(Cl)cc1)N(Cc1ccc(-c2ncon2)cc1)[C@@H]1CCCC[C@H]1CO` (single isomer, unassigned) [Compound 6, N-(4-(1,2,4-oxadiazol-3-yl)benzyl)-4-chloro-N-(trans-2-(hydroxymethyl)cyclohexyl)benzenesulfonamide], the IC50 was at most 50 nM.

Compound `O=S(=O)(c1ccc(Cl)cc1)N(Cc1ccc(-c2ncon2)cc1)[C@@H]1CCCC[C@H]1CO` (relative stereo) [Compound 5, N-(4-(1,2,4-Oxadiazol-3-yl)benzyl)-4-chloro-N-(trans-2-(hydroxymethyl)cyclohexyl)benzenesulfonamide] came in with an IC50 of at most 50 nM.

In the case of `O=S(=O)(c1ccc(Cl)cc1)N(Cc1ccc(-c2ncon2)cc1)[C@@H]1CCC[C@@H]1CO` (relative stereo) [Compound 4, N-(4-(1,2,4-Oxadiazol-3-yl)benzyl)-4-chloro-N-(cis-2-(hydroxymethyl)cyclopentyl)benzenesulfonamide], the IC50 fell in the range of 50 to 500 nM.

With `O=S(=O)(c1ccc(Cl)cc1)N(Cc1ccc(-c2ncco2)c(F)c1F)[C@@H]1CCCC[C@H]1CO` (relative stereo) [Compound 9, 4-Chloro-N-(2,3-difluoro-4-(oxazol-2-yl)benzyl)-N-(trans-2-(hydroxymethyl)cyclohexyl)benzenesulfonamide], the IC50 was at most 50 nM.

For the compound `N#Cc1ccc(CN([C@@H]2CCCCC[C@H]2CO)S(=O)(=O)c2ccc(Cl)cc2)cc1` (relative stereo) [Compound 28, 4-Chloro-N-(4-cyanobenzyl)-N-(trans-2-(hydroxymethyl)cycloheptyl)benzenesulfonamide], the IC50 is at most 50 nM.

For the compound `O=S(=O)(c1ccc(Cl)cc1)N(Cc1ccc(Br)cc1)C1CC2CCC1C2O` (stereo not shown) [Compound 33, N-(4-Bromobenzyl)-N-(7-hydroxybicyclo[2.2.1]heptan-2-yl)-4-chlorobenzenesulfonamide], the IC50 lay in the range of 500 to 5000 nM.

`O=S(=O)(c1ccc(Cl)cc1)N(Cc1ccc(-c2ncco2)cc1)[C@@H]1CCCCC[C@@H]1CO` (relative stereo) [Compound 31, 4-Chloro-N-(cis-2-(hydroxymethyl)cycloheptyl)-N-(4-(oxazol-2-yl)benzyl)benzenesulfonamide] had an IC50 of 50 to 500 nM.

The compound `CC(O)[C@@H]1CCCC[C@H]1N(Cc1ccc(-c2ncco2)cc1F)S(=O)(=O)c1ccc(Cl)cc1` (single isomer, unassigned) [Compound 25] had an IC50 of at most 50 nM.

`O=S(=O)(c1ccc(Cl)cc1)N(Cc1ccc(-c2ncon2)cc1)[C@@H]1CCC[C@H]1CO` (relative stereo) [Compound 2, N-(4-(1,2,4-Oxadiazol-3-yl)benzyl)-4-chloro-N-(trans-2-(hydroxymethyl)cyclopentyl)benzenesulfonamide] had an IC50 of 50 to 500 nM.

As for `O=S(=O)(c1ccc(Cl)cc1)N(Cc1ccc(-c2ncco2)cc1)[C@@H]1CCC[C@H]1CO` (relative stereo) [Compound 1, 4-Chloro-N-(trans-2-(hydroxymethyl)cyclopentyl)-N-(4-(oxazol-2-yl)benzyl)benzenesulfonamide], the IC50 was 50 to 500 nM.

The same test, now with this note: Homo sapiens, 18 h, H4 cells overexpressing HPLAP-APP, 18 hrs incubation at 37° C., Aβ in supernatant by time-resolved fluorescence; numeric values.
Turning to `CC(O)[C@@H]1CCCC[C@H]1N(Cc1ccc(-c2ncco2)cc1F)S(=O)(=O)c1ccc(Cl)cc1` (single isomer, unassigned) [Compound 24], inhibition was half-maximal at 2300 nM (IC50).

Source of the values: US7977362B2, “Alpha-(N-benzenesulfonamido)cycloalkyl derivatives” (Bristol-Myers Squibb Company, priority 2009, dated 2011).
